Measured values taken from patent publication US8450352B2, “Thiazole compounds and their use for inhibiting phosphodiesterase 4, TNF-α, and IL-4” (Otsuka Pharmaceutical Co., Ltd., priority 2004, dated 2013).
Counter-ions that a name gives are not always drawn.

Molecular target: T1, human PDE4D (HPDE4D) (Homo sapiens, UniProt Q08499)
T1 construct: made in house; host or cells: COS-7 cells (African green monkey kidney), transient transfection; soluble supernatant of the homogenate
Assay: Confirmatory test for phosphodiesterase (PDE) 4 inhibitory activity
Type: biochemical
Details: concentration that inhibits the PDE4 activity by 50%; PDE4D enzyme solution from transfected COS-7 cells, [3H]cAMP substrate
From the text: Confirmatory Test for Phosphodiesterase (PDE) 4 Inhibitory Activity
(1) Mass Preparation of Plasmids
Plasmids containing genes coding for human PDE4D (HPDE4D) (stored in Otsuka America Pharmaceutical, Inc., Maryland Research Laboratories) were transformed into Escherichia coli, and mass cultured. The plasmids were then purified using EndoFree™ Plasmid Mix Kit (Qiagen).
(2) Mass expression and purification of PDE4D
African green monkey kidney-derived COS-7 cells (RCB 0539) were subcultured in a DMEM medium containing 100 units/ml penicillin, […] streptomycin and 10% FBS. The plasmids prepared in (1) were transfected into the cells, using LipofectAMINE™ 2000 Reagent (hereinafter referred to as “LF2000”, a product of Invitroge), according to the attached protocol. For comparison, pcDNA3.1 was transfected as a control vector. The COS-7 cells were inoculated into 10 cm diameter petri dishes on the day before transfection, so that the cells reached 90% confluence on the day of transfection. Twelve micrograms of the plasmids diluted with 0.9 ml of OPTI-MEM I (Invitrogen) (a plasmid solution; Solution A) and 30 μl of LF2000 diluted with 0.9 ml of OPTI-MEM I (a LF2000 solution; Solution B) were prepared per petri dish, and allowed to stand at room temperature for 5 minutes. Solutions A and B were then mixed together and allowed to stand at room temperature for 20 minutes. The mixture was added to the cultured cells, and incubation was performed overnight at 37° C. in an atmosphere of 5% CO2. The culture medium was changed on the following day, incubation was continued overnight, and the cells were collected by the following procedure. First, the cells were washed once with PBS (Sigma), and 2 ml of Trypsin-EDTA solution (Sigma) was added per petri dish, spread over the dish and removed. The cells were then allowed to stand at 37° C. for 2 to 3 minutes, separated from the petri dish and suspended in a medium. The suspension was placed in a centrifuge tube, and centrifuged at 200×g and 4° C. for 5 minutes. The supernatant was then removed. The cells were further washed with PBS and stored at −80° C. A KHEM buffer (50 mM Hepes, 50 mM KCl, 10 mM EGTA, 1.92 mM MgCl2, pH 7.2) containing 1 mM DTT, 40 μg/ml PMST, 156 μg/ml benzamidine, 1 μg/ml apotinin, 1 μg/ml leupeptin, 1 μg/ml pepstatin A, and 1 μg/ml antipain was added to the cells that had been stored, and the resulting mixture was placed in a glass homogenizer and homogenized on ice. The cell suspension was centrifuged at 100×g and 4° C. for 5 minutes, and the supernatant was further centrifuged at 100,000×g for 1 hour. Thereafter, the supernatant was dispensed into new tubes as a PDE4D enzyme solution, and stored in an ultra-low-temperature freezer. The protein concentration of the PDE4D enzyme solution was then measured.
(3) Determination of Dilution Factor of PDE4D Enzyme Solution
The PDE4D enzyme solution prepared in (2) was diluted 10-, 25-, 50-, 100-, 200-, 400- and 800-fold with 20 mM Tris-HCl (pH 7.4), and the PDE4D activities of the diluted enzyme solutions were measured by the method described in (4) to determine the optimum dilution factor to obtain a PDE4D enzyme solution in which degraded cAMP constituted 10 to 30% of the total cAMP.
(4) Measurement of PDE4D Inhibitory Activity
The necessary amount of each test substance was weighed out and dissolved in 100% DMSO to a concentration of 10 mM. The resulting solutions were stored in a freezer as test substance stock solutions. Before the inhibitory activity measurement, the stock solutions were melted, diluted 2-fold with 100% DMSO to a concentration of 5 mM, and further diluted with 100% DMSO to obtain test substance solutions with 10 graded concentrations. Each test substance solution was added to a 1.2 ml tube containing 23 μl of 20 mM Tris-HCl (pH 7.4). […]

T1 sequence (Q08499 whole entry): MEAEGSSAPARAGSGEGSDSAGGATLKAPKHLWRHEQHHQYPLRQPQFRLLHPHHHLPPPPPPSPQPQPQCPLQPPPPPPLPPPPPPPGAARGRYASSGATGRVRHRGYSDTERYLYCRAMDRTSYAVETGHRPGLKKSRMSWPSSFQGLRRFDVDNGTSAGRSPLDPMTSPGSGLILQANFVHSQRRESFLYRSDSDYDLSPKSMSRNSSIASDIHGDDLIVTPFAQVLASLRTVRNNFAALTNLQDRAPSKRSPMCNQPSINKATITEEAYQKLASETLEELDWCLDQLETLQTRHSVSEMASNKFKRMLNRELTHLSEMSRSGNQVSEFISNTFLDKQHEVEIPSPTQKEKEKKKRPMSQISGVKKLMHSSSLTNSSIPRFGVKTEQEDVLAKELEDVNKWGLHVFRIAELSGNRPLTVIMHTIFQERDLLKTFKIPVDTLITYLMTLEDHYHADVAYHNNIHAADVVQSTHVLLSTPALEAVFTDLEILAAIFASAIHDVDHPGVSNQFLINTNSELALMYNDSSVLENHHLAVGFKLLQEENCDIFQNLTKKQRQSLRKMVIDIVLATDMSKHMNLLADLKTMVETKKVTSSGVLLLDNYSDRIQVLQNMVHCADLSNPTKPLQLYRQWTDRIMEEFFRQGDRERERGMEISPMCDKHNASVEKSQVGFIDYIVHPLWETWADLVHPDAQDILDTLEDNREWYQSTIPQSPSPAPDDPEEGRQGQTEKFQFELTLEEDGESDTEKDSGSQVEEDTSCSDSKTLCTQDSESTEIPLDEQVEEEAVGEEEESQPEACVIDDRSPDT

Row | IC50 [nM] | Compound
1 | 2.3 | CCOc1ccc(-c2nc(CCC(=O)c3ccccc3OCC)cs2)cc1OCC [Example 100]
2 | 0.2 | CCOc1ccc(-c2nc(CCC(=O)c3ncccc3OCC)cs2)cc1OCC [Example 87, 3-[2-(3,4-diethoxyphenyl)thiazole-4-yl]-1-(3-ethoxypyridine-2-yl)-1-propanone]
3 | 6.6 | CCOc1ccc(-c2nc(CCC(O)c3ncccc3OC)cs2)cc1OCC (stereo not shown) [Example 187, 3-[2-(3,4-diethoxyphenyl)thiazole-4-yl]-1-(3-methoxypyridine-2-yl)-1-propanol dihydrochloride]

Test system: not given
Assay: not given
Details: not given

Row | melting point [°C] | Compound
4 | 84.3 to 86.1 | CCOc1ccc(-c2nc(CCC(=O)c3ccccc3OCC)cs2)cc1OCC [Example 100]
5 | 164 to 167 | CCOc1ccc(-c2nc(/C=C/C(=O)c3ccc(C#N)cc3)cs2)cc1OCC [Example 18]
6 | 188 to 189 | CCOc1ccc(-c2nc(/C=C/C(=O)c3c(O)cc(O)cc3O)cs2)cc1OCC [Example 9]
7 | 93.1 to 94.4 | CCOc1ccc(-c2nc(CCC(=O)c3nccs3)cs2)cc1OCC [Example 90, 3-[2-(3,4-diethoxyphenyl)thiazole-4-yl]-1-thiazole-2-yl-1-propanone]
8 | 125 to 126 | CCOc1ccc(-c2nc(/C=C/C(=O)c3cccc([N+](=O)[O-])c3)cs2)cc1OCC [Example 24]
9 | 153.2 to 153.8 | CCOc1ccc(-c2nc(CCC(=O)c3ccc(O)c(O)c3)cs2)cc1OCC (as salt: hydrochloride) [Example 92]
10 | 199.5 to 201.5 | CCOc1ccc(-c2nc(/C=C/C(=O)c3ccc(NC(C)=O)cc3)cs2)cc1OCC [Example 28]
11 | 150 to 151 | CCOc1ccc(-c2nc(/C=C/C(=O)c3ccc(C(=O)OC)cc3)cs2)cc1OCC [Example 17]
12 | 155 to 156 | CCOc1ccc(-c2nc(/C=C/C(=O)c3cc(OC)c(OC)c(OC)c3)cs2)cc1OCC [Example 11]
13 | 195 to 196 | CCOc1ccc(-c2nc(/C=C/C(=O)c3ccc(O)c(C(=O)O)c3)cs2)cc1OCC [Example 19]
14 | 79 to 82 | CCOc1cc(-c2nc(/C=C/C(=O)c3cc(OC)ccc3OC)cs2)ccc1OC [Example 40]
15 | 116 to 121 | CCOc1ccc(-c2nc(/C=C/C(=O)c3ccc(F)cc3)cs2)cc1OCC [Example 25]
16 | 144.5 to 146 | CCOc1ccc(-c2nc(/C=C/C(=O)c3cccc(O)c3)cs2)cc1OCC [Example 16]
17 | 128 to 129 | CCOc1ccc(-c2nc(/C=C/C(=O)c3ccc(C(C)=O)cc3)cs2)cc1OCC [Example 23]
18 | 141.3 to 142.4 | CCOc1ccc(C(=O)CCc2csc(-c3ccc(OC)c(OC)c3)n2)cc1OCC [Example 93]
19 | 66.1 to 67.9 | CCOc1ccc(-c2nc(CCC(=O)c3ccccc3Br)cs2)cc1OCC [Example 103]
20 | 152 to 153 | CCOc1ccc(-c2nc(/C=C/C(=O)c3ccc(OC)c(OC)c3)cs2)cc1OCC [Example 13]
21 | 174 to 177 | COc1ccc(-c2nc(/C=C/C(=O)c3ccc(O)cc3)cs2)cc1OC [Example 37]
22 | 162 to 165 | COc1ccc(-c2nc(/C=C/C(=O)c3ccc(O)c(O)c3)cs2)cc1OC (as salt: hydrochloride) [Example 7]
23 | 82.5 to 83.5 | CCOc1ccc(-c2nc(CCC(=O)c3ccccc3F)cs2)cc1OCC [Example 101]
24 | 129 to 130 | CCOc1ccc(-c2nc(/C=C/C(=O)c3ccccc3)cs2)cc1OCC [Example 14]
25 | 141.3 to 142.4 | CCOc1ccc(CC(=O)Cc2csc(-c3ccc(OC)c(OC)c3)n2)cc1OCC [Example 243, 3-[2-(3,4-dimethoxyphenyl)thiazole-4-yl]-1-(3,4-diethoxyphenyl)propanone]
26 | 228 to 230 | COc1ccc(-c2nc(/C=C/C(=O)c3cc(C(C)(C)C)c(O)c(C(C)(C)C)c3)cs2)cc1OC [Example 22]

Row | melting point [°C] | Compound
27 | 161.3 to 162.8 | CCOc1ccc(-c2nc(/C=C/C(=O)c3ccc(O)c(C(=O)OC)c3)cs2)cc1OCC [Example 20]
28 | 139 to 140 | CCOc1ccc(-c2nc(/C=C/C(=O)c3ccc(OC(C)=O)c(OC(C)=O)c3)cs2)cc1OCC [Example 8]
29 | 164 to 168 | COc1ccc(-c2nc(/C=C/C(=O)c3cc(O)cc(O)c3)cs2)cc1OC (as salt: hydrochloride) [Example 6]
30 | 133 to 134 | CCOc1ccc(-c2nc(/C=C/C(=O)c3ccc(O)cc3)cs2)cc1OCC [Example 10]
31 | 124 to 125.5 | CCOc1ccc(-c2nc(/C=C/C(=O)c3ccc(C)cc3)cs2)cc1OCC [Example 26]
32 | 126 to 127 | CCOc1ccc(-c2nc(/C=C/C(=O)c3ccccc3O)cs2)cc1OCC (as salt: hydrobromid) [Example 15]
33 | 165 to 168 | CCOc1ccc(-c2nc(/C=C/C(=O)c3cc(Cl)c(N)c(Cl)c3)cs2)cc1OCC (as salt: hydrochloride) [Example 12]
34 | 64.4 to 65.1 | CCOc1ccc(-c2nc(CCC(=O)c3ccccc3Cl)cs2)cc1OCC [Example 104]
35 | 113.7 to 114.9 | CCOc1ccc(-c2nc(CCC(=O)c3ccccc3O)cs2)cc1OCC [Example 98]
36 | 142 to 143 | CCOc1ccc(-c2nc(/C=C/C(=O)c3ccccc3[N+](=O)[O-])cs2)cc1OCC [Example 27]
37 | 125 to 127 | CCOc1ccc(-c2nc(/C=C/C(=O)c3ccc([N+](=O)[O-])cc3)cs2)cc1OCC [Example 32]
38 | 132 to 133 | CCOc1ccc(-c2nc(/C=C/C(=O)c3ccccc3C(=O)OC)cs2)cc1OCC [Example 33]
39 | 130 to 135 | CCOc1ccc(C(=O)/C=C/c2csc(-c3ccc(OCC)c(OCC)c3)n2)cc1 [Example 31]
40 | 227.4 to 228 | COc1ccc(-c2nc(/C=C/C(=O)c3ccc(O)c(C(=O)O)c3)cs2)cc1OC [Example 39]
41 | 148 to 150 | CCOc1ccc(-c2nc(/C=C/C(=O)c3ccc(N)cc3)cs2)cc1OCC [Example 30]
42 | 131 to 133 | CCOc1ccc(-c2nc(/C=C/C(=O)c3ccc(Cl)cc3)cs2)cc1OCC [Example 21]
43 | 128 to 128.5 | COc1ccc(-c2nc(CCC(=O)c3ccc(OC(C)=O)c(OC(C)=O)c3)cs2)cc1OC [Example 94]
44 | 138 to 139 | CCOc1ccc(-c2nc(/C=C/C(=O)c3ccc(Cl)c(Cl)c3)cs2)cc1OCC [Example 29]
45 | 90.2 to 92 | CCOc1ccc(-c2nc(CCC(=O)c3cc(Cl)ccc3OC)cs2)cc1OCC [Example 108]
46 | 97.8 to 98.5 | CCOc1ccc(-c2nc(CCC(=O)c3cc(OC)ccc3OC)cs2)cc1OCC [Example 95]
47 | 91.7 to 92.9 | CCOc1ccc(-c2nc(CCC(=O)c3ccccc3C(=O)OC)cs2)cc1OCC [Example 240, methyl 2-{3-[2-(3,4-diethoxyphenyl)thiazole-4-yl]propionyl}benzoate]
48 | 78.2 to 79 | CCOc1ccc(-c2nc(CCC(O)c3ccccc3OC)cs2)cc1OCC (stereo not shown) [Example 186, 3-[2-(3,4-diethoxyphenyl)thiazole-4-yl]-1-(2-methoxyphenyl)-1-propanol]

Row | Compound | melting point [°C]
49 | COc1ccc(-c2nc(CC(=O)Cc3ccc(OC(C)=O)c(OC(C)=O)c3)cs2)cc1OC [Example 242, 3-[2-(3,4-dimethoxyphenyl)thiazole-4-yl]-1-(3,4-diacetoxyphenyl)propanone] | 128 to 128.5
